From publication PMC7744152, “New potent steroid sulphatase inhibitors based on 6-(1-phenyl-1H-1,2,3-triazol-4-yl)naphthalen-2-yl sulphamate derivatives” (Journal of Enzyme Inhibition and Medicinal Chemistry, 2020) come the findings set out here.

SMILES strings stand for the structures.

Holding throughout (type): biochemical
In test [1] the target is T1, steroid sulphatase (STS) (Homo sapiens, UniProt P08842).
T1 construct: STS enzyme extracted from human placenta and purified
T1 sequence (P08842 22-583): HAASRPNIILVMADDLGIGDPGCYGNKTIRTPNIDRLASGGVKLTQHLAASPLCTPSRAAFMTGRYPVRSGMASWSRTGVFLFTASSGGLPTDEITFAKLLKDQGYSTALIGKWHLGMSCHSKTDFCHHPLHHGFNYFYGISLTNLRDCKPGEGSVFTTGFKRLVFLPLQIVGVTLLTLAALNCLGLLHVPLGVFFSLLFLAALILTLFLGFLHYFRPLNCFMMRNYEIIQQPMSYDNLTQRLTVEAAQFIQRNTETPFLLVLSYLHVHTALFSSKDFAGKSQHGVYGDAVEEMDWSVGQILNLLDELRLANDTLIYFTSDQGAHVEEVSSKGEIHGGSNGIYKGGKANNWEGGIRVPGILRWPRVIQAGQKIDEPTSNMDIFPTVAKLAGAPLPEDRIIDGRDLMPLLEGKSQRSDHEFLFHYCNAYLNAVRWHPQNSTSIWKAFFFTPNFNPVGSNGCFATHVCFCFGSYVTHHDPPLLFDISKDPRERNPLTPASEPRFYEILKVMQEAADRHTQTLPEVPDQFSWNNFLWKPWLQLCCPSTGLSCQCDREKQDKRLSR
As to the kind of experiment: radiolabelled [3H] oestrone sulphate hydrolysis, purified placental STS, […] inhibitor.

Test [2] concerns the target T1, steroid sulphatase (STS). Briefly: radiolabelled [3H] oestrone sulphate hydrolysis, purified placental STS, […] inhibitor (also MCF-7 cell IC50 […]).
For test [3], the target named is T1, steroid sulphatase (STS). Described as above. The source holds these as a separate data set.
Test [4] concerns the target T1, steroid sulphatase (STS). The description is as above. The source holds these as a separate data set.

The term remaining activity denotes the activity still measured, relative to the control. High values mean much activity left, low ones little activity left. For the molecule `NS(=O)(=O)Oc1ccc2cc(-c3cn(-c4cccc(F)c4)nn3)ccc2c1` [3B, 6-(1-(3-Fluorophenyl)-1H-1,2,3-triazol-4-yl)naphthalen-2-yl sulphamate], the remaining activity at 0.5 µM on steroid sulphatase (STS) [1] stood at 17.4%.
The same measure, in the same setting: for `NS(=O)(=O)Oc1ccc2cc(-c3cn(-c4cccc(Cl)c4)nn3)ccc2c1` [3C, 6-(1-(3-Chlorophenyl)-1H-1,2,3-triazol-4-yl)naphthalen-2-yl sulphamate] the value was 9.66%; for `NS(=O)(=O)Oc1ccc2cc(-c3cn(-c4cccc(Br)c4)nn3)ccc2c1` [3D, 6-(1-(3-Bromophenyl)-1H-1,2,3-triazol-4-yl)naphthalen-2-yl sulphamate], 9.62%.
Same read-out and setting: for `NS(=O)(=O)Oc1ccc2cc(-c3cn(-c4ccc(Cl)cc4)nn3)ccc2c1` [3F, 6-(1-(4-Chlorophenyl)-1H-1,2,3-triazol-4-yl)naphthalen-2-yl sulphamate] the value was 18.7%.
Same read-out and setting: for `NS(=O)(=O)Oc1ccc2cc(-c3cn(-c4ccc(Br)cc4)nn3)ccc2c1` [3G, 6-(1-(4-Bromophenyl)-1H-1,2,3-triazol-4-yl)naphthalen-2-yl sulphamate] the value was 23.1%.
On to `NS(=O)(=O)Oc1ccc2cc(-c3cn(-c4ccccc4Cl)nn3)ccc2c1` [3I], for which the remaining activity at 0.5 µM at steroid sulphatase (STS) [2] was 16.9%.
For the molecule `NS(=O)(=O)Oc1ccc2cc(-c3cn(-c4ccccc4Br)nn3)ccc2c1` [3J, 6-(1-(2-Bromophenyl)-1H-1,2,3-triazol-4-yl)naphthalen-2-yl sulphamate], the remaining activity at 0.5 µM at steroid sulphatase (STS) [1] is 15.9%.
`NS(=O)(=O)Oc1ccc2cc(-c3cn(-c4cc(F)cc(F)c4)nn3)ccc2c1` [3K, 6-(1-(3,5-Difluorophenyl)-1H-1,2,3-triazol-4-yl)naphthalen-2-yl sulphamate] displayed a remaining activity at 0.5 µM on steroid sulphatase (STS) [3] of 14%.
At steroid sulphatase (STS) [4], `NS(=O)(=O)Oc1ccc2cc(-c3cn(-c4ccc(F)c(F)c4F)nn3)ccc2c1` [3L, 6-(1-(2,3,4-Trifluorophenyl)-1H-1,2,3-triazol-4-yl)naphthalen-2-yl sulphamate] displayed a remaining activity at 0.5 µM of 7.98%.
